Measured values: patent US7084127B2, “C2,5′-disubstituted and N6, C2,5′-trisubstituted adenosine derivatives and their different uses” (Universiteit Leiden, priority 2001, dated 2006)
Where two headings read alike, the source gives them in different places. Blank lines part the entries; values can stand above or below the compound they belong to.

Experiments:
[1] = target: T1, A2A receptor in rat striatum (Rattus norvegicus, UniProt P30543); test: Radioligand binding, displacement of [3H]ZM241385 from rat striatal membranes;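 note: displacement assays run in the absence of GTP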
T1 construct: the A2A receptor in rat striatum; from tissue; host or cells: rat striatum
T1 sequence (P30543 whole entry): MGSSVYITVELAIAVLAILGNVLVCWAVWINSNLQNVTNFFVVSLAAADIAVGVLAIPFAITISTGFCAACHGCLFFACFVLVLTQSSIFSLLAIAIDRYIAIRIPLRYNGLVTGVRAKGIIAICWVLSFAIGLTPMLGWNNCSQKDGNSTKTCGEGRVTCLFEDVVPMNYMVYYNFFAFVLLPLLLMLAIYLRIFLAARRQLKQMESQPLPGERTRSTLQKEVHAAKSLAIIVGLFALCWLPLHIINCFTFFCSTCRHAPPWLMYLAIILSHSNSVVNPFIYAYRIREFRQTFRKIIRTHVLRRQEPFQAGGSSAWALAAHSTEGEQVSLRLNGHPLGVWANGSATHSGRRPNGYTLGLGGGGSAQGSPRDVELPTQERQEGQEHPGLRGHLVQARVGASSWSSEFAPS
Procedure: (§1) Incubations were carried out for 1 hr at 37° C. and were terminated by rapid filtration over Whatman GF/B filters, using a Brandell cell harvester (Brandell, Gaithersburg, Md.). Tubes were washed three times with 3 ml of buffer. Radioactivity was determined in a Beckman 5500B γ-counter. Nonspecific binding was determined in the presence of 10^−5 M R-PIA.
(§2) All compounds were tested in radioligand binding assays to determine their affinities for the adenosine A1 receptor in rat brain cortex, the A2A receptor in rat striatum and the human A3 receptor as expressed in HEK 293 cells (Table 2). […] AB-MECA, an A3 receptor agonist, was also used. Displacement experiments were performed in the absence of GTP.

[2] = target: T2, human A3 receptor as expressed in HEK 293 cells (Homo sapiens, UniProt P0DMS8); test: Radioligand binding, displacement of [125I]AB MECA, HEK 293 cell membranes
T2 construct: expressed in transfected cells; host or cells: HEK 293 cells (membrane suspension)
T2 sequence (P0DMS8 1-318): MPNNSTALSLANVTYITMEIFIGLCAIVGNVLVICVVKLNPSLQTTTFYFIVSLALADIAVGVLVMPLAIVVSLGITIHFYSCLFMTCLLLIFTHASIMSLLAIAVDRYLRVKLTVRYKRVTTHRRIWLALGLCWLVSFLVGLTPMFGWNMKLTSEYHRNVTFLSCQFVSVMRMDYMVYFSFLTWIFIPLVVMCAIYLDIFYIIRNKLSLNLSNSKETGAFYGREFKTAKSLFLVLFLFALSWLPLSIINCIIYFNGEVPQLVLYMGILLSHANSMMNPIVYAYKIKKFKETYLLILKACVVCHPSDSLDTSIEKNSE
Procedure: as §1, §2

[3] = target: T3, human adenosine A1 receptors expressed in CHO cells (Homo sapiens, UniProt P30542); test: cAMP assay A1 (inhibition of forskolin-induced cAMP production); assay type: cell-based; details: for % inhib. A1 of forskolin-induced cAMP: compared to reference full agonist CPA (10 μM) in A1 CHO cells, tested at ±100 × Ki, ±SEM, n = 3, forskolin 10 μM
T3 construct: expressed in transfected cells; host or cells: CHO cells
T3 sequence (P30542 1-326): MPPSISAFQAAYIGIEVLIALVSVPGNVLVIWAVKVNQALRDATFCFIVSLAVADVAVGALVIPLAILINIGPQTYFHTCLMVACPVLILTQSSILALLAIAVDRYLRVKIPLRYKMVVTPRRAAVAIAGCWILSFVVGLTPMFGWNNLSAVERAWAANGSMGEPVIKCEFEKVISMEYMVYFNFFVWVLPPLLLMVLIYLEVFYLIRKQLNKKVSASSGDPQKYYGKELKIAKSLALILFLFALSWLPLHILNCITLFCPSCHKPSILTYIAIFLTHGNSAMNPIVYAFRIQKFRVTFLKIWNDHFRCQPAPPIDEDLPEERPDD
Procedure: cAMP assay A1 and A3 CHO cells expressing either the human adenosine A1 or A3 receptor were grown overnight as a monolayer in 24 wells tissue culture plates (400 μl/well; 2×10^5cells/well). cAMP generation was performed in Dulbecco's Modified Eagles Medium (DMEM)/N-2-hydroxyethylpiperazin-N′-2-ethansulfonic acid (HEPES) buffer (0.60 g HEPES/50 ml DMEM pH 7.4). […] After incubation for 40 minutes at 37° C., 100 μl forskolin (final concentration 10 μM) was added. After 15 minutes at 37° C., the reaction was terminated by removing the medium and adding 200 μL 0.1 M HCl. Wells were stored at −20° C. until assay
The amounts of cAMP were determined after a protocol with cAMP binding protein^28 with the following minor modifications. As a buffer was used 150 mM K2HPO4/10 mM EDTA/0.2% Bovine Serum Albumine (BSA) at pH 7.5. Samples (20 μl+30 μl 0.1 M HCl) were incubated for at least 2.5 hours at 0° C. before filtration over Whatman GF/B filters. Filters were additionally rinsed with 2×2 ml TrisHCl buffer (pH 7.4, 4° C.). Filters were counted in Packard Emulsifier Safe scintillation fluid (3.5 ml) after 24 hours of extraction. […]

[4] = target: T4, adenosine A1 receptor in rat brain cortex (Rattus norvegicus, UniProt P25099); test: Radioligand binding, displacement of [3H]DPCPX from rat cortical membranes; details: ligand 10^−5 M
T4 construct: the adenosine A1 receptor in rat brain cortex; from tissue; host or cells: rat brain cortex
T4 sequence (P25099 1-326): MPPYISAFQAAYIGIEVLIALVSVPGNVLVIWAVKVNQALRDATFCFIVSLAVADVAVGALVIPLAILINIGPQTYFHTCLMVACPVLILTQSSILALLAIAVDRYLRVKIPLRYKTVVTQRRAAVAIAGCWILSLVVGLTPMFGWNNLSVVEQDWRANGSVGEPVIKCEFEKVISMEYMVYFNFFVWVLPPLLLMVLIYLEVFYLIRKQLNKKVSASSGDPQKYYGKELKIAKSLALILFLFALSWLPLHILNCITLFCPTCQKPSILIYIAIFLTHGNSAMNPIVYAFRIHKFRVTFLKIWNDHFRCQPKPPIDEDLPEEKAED
Procedure: as §1, §2

[5] = target: T5, human adenosine A2A receptors expressed in CHO cells (Homo sapiens, UniProt P29274); test: cAMP assay A2A (stimulation of cAMP production); assay type: cell-based
T5 construct: expressed in transfected cells; host or cells: CHO cells
T5 sequence (P29274 whole entry): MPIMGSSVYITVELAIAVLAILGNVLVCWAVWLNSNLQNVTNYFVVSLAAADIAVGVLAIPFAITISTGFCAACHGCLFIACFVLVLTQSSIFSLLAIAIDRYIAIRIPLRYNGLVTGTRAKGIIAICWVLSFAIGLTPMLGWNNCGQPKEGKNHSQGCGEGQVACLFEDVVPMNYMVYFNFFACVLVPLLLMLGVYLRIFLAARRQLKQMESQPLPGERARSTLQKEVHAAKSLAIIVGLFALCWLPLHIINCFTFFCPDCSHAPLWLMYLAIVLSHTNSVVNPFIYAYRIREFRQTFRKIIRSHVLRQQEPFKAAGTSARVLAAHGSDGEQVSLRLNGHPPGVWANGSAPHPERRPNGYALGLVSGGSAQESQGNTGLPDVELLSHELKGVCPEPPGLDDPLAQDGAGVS
Procedure: cAMP assay A2A CHO cells expressing human adenosine A2A receptors were grown overnight as a monolayer in 24 wells tissue culture plates (400 μL/well; 2×10^5 cells/well). cAMP generation was performed in Dulbecco's Modified Eagles Medium (DMEM)/N-2-hydroxyethylpiperazin-N′-2-ethanesulfonic acid (HEPES) buffer (0.60 g HEPES/50 mL DMEM pH 7.4). To each well, washed three times with DMEM/HEPES buffer (250 μλ), 100 μl DMEM/HEPES buffer, 100 μl adenosine deaminase (final concentration 5 IU/ml) and 100 μl of a mixture of rolipram and cilostamide (final concentration 50 μM each) were added. After incubation for 40 minutes at 37° C., 100 μl agonist was added. […] After 15 minutes at 37° C., the reaction was terminated by removing the medium and adding 200 μl 0.1 M HCl. Wells were stored at −20° C. until assay.
The amounts of cAMP were determined after a protocol with cAMP binding protein^36 with the following minor modifications. As a buffer was used 150 mM K2HPO4/10 mM EDTA/0.2% Bovine Serum Albumine (BSA) at pH 7.5. Samples (20 μl+30 μl 0.1 M HCl) were incubated for at least 2.5 hours at 0° C. before filtration over Whatman GF/B filters. […] Filters were counted in Packard Emulsifier Safe scintillation fluid (3.5 ml) after 24 hours of extraction.
Data Analysis Apparent Ki and EC50 values were computed from the displacement curves by non-linear regression of the competition curves with the software package Prism (Graph Pad, San Diego, Calif.)

[6] = target: T6, human adenosine A3 receptor (Homo sapiens, UniProt P0DMS8); test: cAMP assay A3 (inhibition of forskolin-induced cAMP production); assay type: cell-based
T6 construct: expressed in transfected cells; HEK 293 cells according to b145 and b219
T6 sequence (P0DMS8 1-318): T2 sequence (P0DMS8 1-318)
Procedure: cAMP assay A3 CHO cells expressing the human adenosine A3 receptor were grown overnight as a monolayer in 24 wells tissue culture plates (400 μl/well; 2×10^5 cells/well). cAMP generation was performed in Dulbecco's Modified Eagles Medium (DMEM)/N-2-hydroxyethylpiperazin-N′-2-ethansulfonic acid (HEPES) buffer (0.60 g HEPES/50 ml DMEM pH 7.4). […] After incubation for 40 minutes at 37° C., 100 μl forskolin (final concentration 10 μM) was added. After 15 minutes at 37° C., the reaction was terminated by removing the medium and adding 200 μl 0.1 M HCl. Wells were stored at −20° C. until assay. The amounts of cAMP were determined after a protocol with cAMP binding protein^36 with the following minor modifications. As a buffer was used 150 mM K2HPO4/10 mM EDTA/0.2% Bovine Serum Albumine (BSA) at pH 7.5. Samples (20 μl+30 μl 0.1 M HCl) were incubated for at least 2.5 hours at 0° C. before filtration over Whatman GF/B filters. […] Filters were counted in Packard Emulsifier Safe scintillation fluid (3.5 ml) after 24 hours of extraction.
All compounds were also tested in functional assays.
The ability of the compounds to inhibit forskolin-stimulated (10 μM) cAMP production via the adenosine A3 receptor was also studied.
The amounts of cAMP were determined after a protocol with cAMP binding protein^28 with the following minor modifications. As a buffer was used 150 mM K2HPO4/10 mM EDTA/0.2% Bovine Serum Albumine (BSA) at pH 7.5. Samples (20 μl+30 μl 0.1 M HCl) were incubated for at least 2.5 hours at 0° C. before filtration over Whatman GF/B filters. […] Filters were counted in Packard Emulsifier Safe scintillation fluid (3.5 ml) after 24 hours of extraction.

[7] = [3H]ZM241385, rat striatal membranes
[8] = [3H]ZM241385, rat striatal membranes, ligand 10^−5 M
[9] = cAMP production, human A2A in CHO cells
[10] = compared to full agonist CGS 21680

Ki [1, 7]: 3900 ± 580 nM
Compound: 5′-Deoxy-2-iodo-5′-methylthioadenosine [Compound 33]

Compound: OC[C@H]1O[C@@H](n2cnc3c(NC4CCCC4)nc(Cl)nc32)[C@H](O)[C@@H]1O [2-Cl-CPA, reference compound]
% displacement at 10^−5 M A2A [1, 8]: 53.1%

Compound: OC[C@H]1O[C@@H](n2cnc3c(NC4CCCC4)ncnc32)[C@H](O)[C@@H]1O [CPA, reference compound]
% displacement at 10^−5 M A2A [1]: 45.9% | Ki ([2]; [125I]AB MECA, human A3 receptor in HEK 293 cells, read-out: Ki A3): 281 ± 56 nM | inhibition at 10 µM ([3]; CHO, read-out: % inhib. A1 of forskolin-induced cAMP): 69 ± 3%

Compound: CNC(=O)[C@H]1O[C@@H](n2cnc3c(NCc4cccc(I)c4)nc(Cl)nc32)[C@H](O)[C@@H]1O [Cl-IB-MECA, reference compound]
% displacement at 10^−5 M A2A [1, 8]: 23.5%

Compound: Nc1nc(I)nc2c1ncn2[C@@H]1O[C@H](CO)[C@@H](O)[C@H]1O [Compound 1, 2-Iodoadenosine]
% displacement at 10^−5 M A1 [4]: 36.1% | Emax ([5]; CHO, read-out: Emax (%) A2A): 112 ± 7% | EC50 [5, 9]: 5.4 ± 0.7 µM

Compound: CC(C)CC=NNc1nc(N)c2ncn([C@@H]3O[C@H](CO)[C@@H](O)[C@H]3O)c2n1 [Compound 3, 2-(N′-3-Methyl-1-butylidenehydrazino)adenosine]
% displacement at 10^−5 M A1 [4]: 18.9% | Ki [1, 7]: 20 ± 7 nM | Ki [2]: 38.3 ± 3.3 nM | Emax ([5]; CHO; read-out: Emax (%) A2A): 92 ± 2% | EC50 [5, 9]: 1.1 ± 0.2 µM | agonist behaviour, cAMP production via adenosine A2A receptor [5, 10]: full agonists | agonist behaviour, inhibition of forskolin-induced cAMP via adenosine A3 receptor ([6]; compared to reference full agonist Cl-IB-MECA): partial agonist | Emax at 3 µM ([6]; read-out: Emax (%) A3): 24%

Ki [1, 7]: 60 ± 20 nM | EC50 [5, 9]: 0.7 ± 0.1 µM | Emax (%) A2A ([5]; compared to Emax of CGS 21680 (10 μM) in A2A CHO cells, ±SEM, n = 3; n.a. = not active, no cAMP produced at 30 μM (35) or 100 μM): 45 ± 6%
Compound: CCCCC#Cc1nc(N)c2ncn([C@@H]3O[C@H](CSC)[C@@H](O)[C@H]3O)c2n1 [Compound 37]

Compound: CSC[C@H]1O[C@@H](n2cnc3c(N)nc(NN=CCC(C)C)nc32)[C@H](O)[C@@H]1O [Compound 45, 5′-Deoxy-2-(N′-3-methyl-1-butylidenehydrazino)-5′-methylthioadenosine]
% displacement at 10^−5 M A1 [4]: 18.9% | Ki [1, 7]: 220 ± 20 nM | Ki [2]: 253 ± 36 nM | Emax ([5]; CHO; read-out: Emax (%) A2A): 44 ± 4% | EC50 [5, 9]: 5 ± 0.6 µM | Emax at 30 µM ([6]; read-out: Emax (%) A3): 41%

Compound: CCSC[C@H]1O[C@@H](n2cnc3c(N)nc(NN=CCC(C)C)nc32)[C@H](O)[C@@H]1O [Compound 46, 5′-Deoxy-2-(N′-3-methyl-1-butylidenehydrazino)-5′-ethylthioadenosine]
% displacement at 10^−5 M A1 [4]: 21.2% | Ki [1, 7]: 500 ± 40 nM | Ki [2]: 814 ± 132 nM | Emax ([5]; CHO; read-out: Emax (%) A2A): 101 ± 4% | EC50 [5, 9]: 7.5 ± 0.3 µM | agonist behaviour, cAMP production via adenosine A2A receptor [5, 10]: full agonists | Emax at 100 µM ([6]; read-out: Emax (%) A3): 7%

Compound: CCCSC[C@H]1O[C@@H](n2cnc3c(N)nc(NN=CCC(C)C)nc32)[C@H](O)[C@@H]1O [Compound 47, 5′-Deoxy-2-(N′-3-methyl-1-butylidenehydrazino)-5′-propylthioadenosine]
% displacement at 10^−5 M A1 [4]: 22.0% | Ki [1, 7]: 1500 ± 280 nM | Ki [2]: 697 ± 31 nM | Emax ([5]; CHO; read-out: Emax (%) A2A): 126 ± 3% | EC50 [5, 9]: 12.9 ± 0.9 µM | agonist behaviour, cAMP production via adenosine A2A receptor [5, 10]: full agonists | Emax at 100 µM ([6]; read-out: Emax (%) A3): 16%

Compound: CC(C)CC=NNc1nc(N)c2ncn([C@@H]3O[C@H](CSC(C)C)[C@@H](O)[C@H]3O)c2n1 [Compound 48, 5′-Deoxy-2-(N′-3-methyl-1-butylidenehydrazino)-5′-isopropylthioadenosine]
% displacement at 10^−5 M A1 [4]: 13.0% | Ki [1, 7]: 1800 ± 230 nM | Ki [2]: 409 ± 118 nM | Emax ([5]; CHO; read-out: Emax (%) A2A): 56 ± 1% | EC50 [5, 9]: 10.4 ± 1 µM | Emax at 30 µM ([6]; read-out: Emax (%) A3): 26%

Ki [1, 7]: 366 ± 109 nM | % inhib. A1 of forskolin-induced cAMP [3]: 74 ± 4%
Compound: COC[C@H]1O[C@@H](n2cnc3c(NC4CCCC4)ncnc32)[C@H](O)[C@@H]1O [Compound 67, N^6-cyclopentyl-5′-O-methyladenosine]

Ki [1, 7]: 373 ± 80 nM | % inhib. A1 of forskolin-induced cAMP [3]: 53 ± 10%
Compound: COC[C@H]1O[C@@H](n2cnc3c(NCc4cccc(I)c4)ncnc32)[C@H](O)[C@@H]1O [Compound 68, N^6-(3-iodobenzyl)-5′-O-methyladenosine]

Ki [1, 7]: 1390 ± 140 nM | % inhib. A1 of forskolin-induced cAMP [3]: 73 ± 4%
Compound: COC[C@H]1O[C@@H](n2cnc3c(NC4CCCC4)nc(Cl)nc32)[C@H](O)[C@@H]1O [Compound 70, N^6-Cyclopentyl-2-chloro-5′-O-methyladenosine]

Ki [1, 7]: 527 ± 21 nM | % inhib. A1 of forskolin-induced cAMP [3]: 37 ± 15%
Compound: COC[C@H]1O[C@@H](n2cnc3c(NCc4cccc(I)c4)nc(Cl)nc32)[C@H](O)[C@@H]1O [Compound 71, N^6-(3-iodobenzyl)-2-Chloro-5′-O-methyladenosine]

% displacement at 10^−5 M A2A [1, 8]: 33.9% | % inhib. A1 of forskolin-induced cAMP [3]: 69 ± 6%
Compound: CCOC[C@H]1O[C@@H](n2cnc3c(NC4CCCC4)ncnc32)[C@H](O)[C@@H]1O [Compound 73, N^6-cyclopentyl-5′-O-ethyladenosine]

% displacement at 10^−5 M A2A [1, 8]: 40.4% | % inhib. A1 of forskolin-induced cAMP [3]: 6 ± 21%
Compound: CCOC[C@H]1O[C@@H](n2cnc3c(NCc4cccc(I)c4)ncnc32)[C@H](O)[C@@H]1O [Compound 74, N^6-(3-Iodobenzyl)-5′-O-Ethyladenosine]

Ki [1, 7]: 1730 ± 700 nM | % inhib. A1 of forskolin-induced cAMP [3]: 62 ± 6%
Compound: CCOC[C@H]1O[C@@H](n2cnc3c(NC4CCCC4)nc(Cl)nc32)[C@H](O)[C@@H]1O [Compound 76, N^6-cyclopentyl-2-Chloro-5′-O-ethyladenosine]

Ki [1, 7]: 848 ± 60 nM | % inhib. A1 of forskolin-induced cAMP [3]: −72 ± 38 %
Compound: CCOC[C@H]1O[C@@H](n2cnc3c(NCc4cccc(I)c4)nc(Cl)nc32)[C@H](O)[C@@H]1O [Compound 77, N^6-(3-iodobenzyl)-2-Chloro-5′-O-ethyladenosine]

% displacement at 10^−5 M A2A [1, 8]: 24.3% | % inhib. A1 of forskolin-induced cAMP [3]: 62 ± 4%
Compound: O[C@@H]1[C@H](O)[C@@H](COC2CC2)O[C@H]1n1cnc2c(NC3CCCC3)ncnc21 [Compound 79, N^6-Cyclopentyl-5′-O-cyclopropyladenosine]

% displacement at 10^−5 M A2A [1, 8]: 43.7% | % inhib. A1 of forskolin-induced cAMP [3]: −104 ± 22 %
Compound: O[C@@H]1[C@H](O)[C@@H](COC2CC2)O[C@H]1n1cnc2c(NCc3cccc(I)c3)ncnc21 [Compound 80, N^6-(3-Iodobenzyl)-5′-O-cyclopropyladenosine]

% displacement at 10^−5 M A2A [1, 8]: 34.6% | % inhib. A1 of forskolin-induced cAMP [3]: 43 ± 9%
Compound: O[C@@H]1[C@H](O)[C@@H](COC2CC2)O[C@H]1n1cnc2c(NC3CCCC3)nc(Cl)nc21 [Compound 82, N^6-cyclopentyl-2-Chloro-5′-O-cyclopropyladenosine]

% displacement at 10^−5 M A2A [1, 8]: 38.7% | % inhib. A1 of forskolin-induced cAMP [3]: −118 ± 41 %
Compound: O[C@@H]1[C@H](O)[C@@H](COC2CC2)O[C@H]1n1cnc2c(NCc3cccc(I)c3)nc(Cl)nc21 [Compound 83, N^6-(3-Iodobenzyl)-2-chloro-5′-O-cyclopropyladenosine]

% inhib. A1 of forskolin-induced cAMP [3]: 61 ± 2%
Compound: N^6-Cyclopentyl-5′-O-Cyclopropyladenosine [Compound 78]
